In patent publication US8486927B2 (Thar Pharmaceuticals, priority 2007, dated 2013):

What was measured:
[1] = In-vivo absorption test in rats, oral gavage, lamotrigine in blood serum by HPLC-UV; set-up: species or system Rats Sprague-Dawley; conditions: for Plasma concentration of lamotrigine in rats: rats (N = 5), oral gavage, 10 mg/kg as lamotrigine
Experimental: Rats historically have been used in safety evaluation and PK screening studies and are recommended by appropriate regulatory agencies.
Dose preparation; dose is prepared and suspended in 1 ml of 5% PEG 400 with 95% methylcellulose solution (weight percentage); methylcellulose solution is prepared by dissolving 0.5% methylcellulose in water (weight percentage).
The machine was operated by Total Chrome Workstation (Perkin Elmer Instruments LLC).

[2] = cited from earlier work
[3] = Sprague-Dawley, rat, plasma, po, 10 mg/kg

SMILES	concentration at 0 h [1, 3]	concentration at 0.5 h [1, 3]	concentration at 1 h [1, 3]	concentration at 2 h [1, 3]	concentration at 3 h [1, 3]	concentration at 4 h [1, 3]	concentration at 8 h [1, 3]	concentration at 12 h [1, 3]	concentration at 24 h [1, 3]	extent of absorption, solid versus solution ([2]; drug delivered as a solid or as a solution)	extent of absorption by site of delivery ([2]; drug delivered to any point in the gastrointestinal tract between the stomach and the ascending colon)	Plasma concentration of lamotrigine in rats ([1]; time 0 hrs)	Plasma concentration of lamotrigine in rats ([1]; time 0.5 hrs)	Plasma concentration of lamotrigine in rats ([1]; time 1 hrs)	Plasma concentration of lamotrigine in rats ([1]; time 2 hrs)	Plasma concentration of lamotrigine in rats ([1]; time 3 hrs)	Plasma concentration of lamotrigine in rats ([1]; time 4 hrs)	Plasma concentration of lamotrigine in rats ([1]; time 8 hrs)	Plasma concentration of lamotrigine in rats ([1]; time 12 hrs)	Plasma concentration of lamotrigine in rats ([1]; time 24 hrs)
Nc1nnc(-c2cccc(Cl)c2Cl)c(N)n1 [Lamotrigine, 6-(2,3-dichlorophenyl)-1,2,4-triazine-3,5-diamine]	0 ng/mL	1590 ng/mL	2240 ng/mL	2370 ng/mL	2420 ng/mL	2480 ng/mL	2680 ng/mL	2860 ng/mL	2130 ng/mL	similar	consistent									
NC(=O)c1cccnc1.Nc1nnc(-c2cccc(Cl)c2Cl)c(N)n1 [Cocrystal 2]												0 ng/mL	1184 ng/mL	1561 ng/mL	1605 ng/mL	1757 ng/mL	1609 ng/mL	1823 ng/mL	1840 ng/mL	971.8 ng/mL
